Toxic doses and inconclusive results are not listed. Cut-off read from the data, not from the text of the source: active = T/C of 150% or more; inactive = T/C below 125%.
Test system: L1210 leukemia ip in BDF1 mice, survival T/C
Experiment: NCI In Vivo Anticancer Drug Screen. Data for tumor model L1210 Leukemia (intraperitoneal) in B6D2F1 (BDF1) mice
Settings: endpoint: mean survival time, higher = longer survival
Procedure, shortened: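 Transplanted-tumor mice were given test agent; controls received vehicle only. Survival readings from the two groups were divided (treated over control).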

[1] = dose: 100.0 mg/kg/injection, schedule: Q04DX003 (ip), vehicle: saline
[2] = dose: 200.0 mg/kg/injection, schedule: Q04DX003 (ip), vehicle: saline

Measured: T/C

C[C@H]1C[C@H]2[C@@H]3CC[C@](O)(C(=O)CO)[C@@]3(C)C[C@H](O)[C@]2(F)[C@@]2(C)C=CC(=O)C=C12
inactive: dose: 25.0 mg/kg/injection, schedule: Q01DX001 (sc), vehicle: steriod suspending solution 103 % of control | dose: 50.0 mg/kg/injection, schedule: Q01DX001 (sc), vehicle: steriod suspending solution 100 % of control | dose: 50.0 mg/kg/injection, schedule: Q04DX003 (sc), vehicle: Klucel (hydroxypropylcellulose) (HPC) 88 % of control | dose: 100.0 mg/kg/injection, schedule: Q01DX001 (sc), vehicle: steriod suspending solution 94 % of control | dose: 100.0 mg/kg/injection, schedule: Q04DX003 (sc), vehicle: Klucel (hydroxypropylcellulose) (HPC) 98 % of control | dose: 200.0 mg/kg/injection, schedule: Q01DX001 (sc), vehicle: steriod suspending solution 98 % of control | dose: 200.0 mg/kg/injection, schedule: Q04DX003 (sc), vehicle: Klucel (hydroxypropylcellulose) (HPC) 90 % of control

O=C(O)CC(Br)C(=O)O (stereo not given)
inactive: [1] 98 % of control | [2] 102 % of control

C#CCOC(=O)CCC(=O)OCC#C
inactive: dose: 100.0 mg/kg/injection, schedule: Q01DX001 (ip), vehicle: saline 103 % of control | dose: 100.0 mg/kg/injection, schedule: Q01DX009 (ip), vehicle: saline 94 % of control | [1] 94 % of control | dose: 200.0 mg/kg/injection, schedule: Q01DX001 (ip), vehicle: saline 100 % of control | dose: 200.0 mg/kg/injection, schedule: Q01DX009 (ip), vehicle: saline 97 % of control | [2] 96 % of control | dose: 400.0 mg/kg/injection, schedule: Q01DX001 (ip), vehicle: saline 100 % of control | dose: 400.0 mg/kg/injection, schedule: Q01DX009 (ip), vehicle: saline 94 % of control | dose: 400.0 mg/kg/injection, schedule: Q04DX003 (ip), vehicle: saline 98 % of control

O=C1C=C(c2ccccc2)C(=O)C=C1c1ccccc1
inactive: dose: 6.25 mg/kg/injection, schedule: Q01DX009 (ip), vehicle: water 94 % of control | dose: 12.5 mg/kg/injection, schedule: Q01DX009 (ip), vehicle: water 86 % of control | dose: 25.0 mg/kg/injection, schedule: Q01DX009 (ip), vehicle: water 103 % of control | dose: 25.0 mg/kg/injection, schedule: Q04DX003 (ip), vehicle: gum acacia 94 % of control | dose: 50.0 mg/kg/injection, schedule: Q01DX009 (ip), vehicle: water 86 % of control | dose: 50.0 mg/kg/injection, schedule: Q04DX003 (ip), vehicle: gum acacia 94 % of control | dose: 100.0 mg/kg/injection, schedule: Q04DX003 (ip), vehicle: gum acacia 105 % of control
